Measurements published in US20230212517A1, “METHODS FOR GENERATING HEMATOPOIETIC STEM CELLS” (The Brigham and Women's Hospital, Inc., priority 2018, published 2023).

Experiments:
[1] = test system: human iPSC-derived HE cells; experiment: Endothelial-to-hematopoietic transition in human iPSC-derived HE cells (FACS, CD34/CD45); format: cell-based; conditions: Yoda1 between 6.25 and 100 μM
Experimental: Embryoid body and hemogenic endothelium differentiation was performed as described in (Sugimura et al. 2017; Ditadi et al. 2015). Briefly, hiPSC colonies were dissociated with 0.05% trypsin for 5 min at 37° C., washed with PBS+2% FBS, and resuspended in STEMPRO-34 medium (Invitrogen, 10639-011) supplemented with L-glutamine (2 mM), penicillin/streptomycin (10 ng/ml), ascorbic acid (1 mM), human holo-Transferrin (150 μg/ml, Sigma T0665), monothioglycerol (MTG, 0.4 mM), BMP4 (10 ng/ml), and Y-27632 (10 μM). Five million cells were seeded into 10 cm dishes (Ezsphere, Asahi Glass) for the spheroid formation. On Day 1, bFGF (5 ng/ml) and BMP4 (10 ng/ml) was added to the medium. On Day 2, the media was changed with the STEMPRO-34 supplemented with SB431542 (6 μM), CHIR99021 (3 μM), bFGF (5 ng/ml), and BMP4 (10 ng/ml). On Day 3, the medium was replaced with STEMPRO-34 supplemented with VEGF (15 ng/ml) and bFGF (10 ng/ml). On day 6, the medium was changed to STEMPRO-34 supplemented with bFGF (5 ng/ml), VEGF (15 ng/ml), interleukin (IL)-6 (10 ng/ml), IGF-1 (25 ng/ml), IL-11 (5 ng/ml), SCF (50 ng/ml) and EPO (2IU). The cells were maintained in a 5% CO2, 5% O2 and 95% humidity incubator. […]

[2] = test system: E11.5 AGM cells; experiment: Hematopoietic colony formation unit (CFU) and FACS assays on E11.5 AGM cells; format: cell-based, mouse; conditions: substance alone vs. control
Experimental: Pulsating blood vessels like conditions were stimulated in vitro using FLEXCELL FX-4000 cell stretching bioreactor machine. To analyze roles of pharmacological targets in regulating the endothelial-to-HSC transition, mouse embryo-derived AGM or whole mouse embryo were exposed ex vivo with biomechanical stretching, chemicals, or drugs. Next, hematopoietic colony formation assays were performed by incubating mouse AGM-derived cells in StemCell M3434 media for seven days. Serial transplantation of AGM-derived HSCs in lethally irradiated SJL mice were performed. The stem cell frequency upon biomechanical stretching was analyzed using a limiting dilution assay. To characterize properties of AGM-HSC-derived blood cells in primary transplants, percentage chimerism and reconstitution was measured using FACS, globin transcripts were analyzed using quantitative reverse transcriptase-PCR, myeloperoxidase amount was measured using PICOKINE ELISA kit, TCR-β rearrangement was analyzed using PCR for TCR-β locus, pre-immune IG detection was analyzed using Thermo-Fisher Mouse Ig Isotyping kit, and delayed-type hypersensitivity was analyzed by injecting sheep RBC (Rockland Immunochemicals) in the footpad of pre-sensitized mice.
E11.5 AGM were harvested from C57BL6/J Cd45.2 mouse embryos, and a single cell suspension of a three-embryo equivalent of cells was seeded on each well of a BioFlex six-well culture plate (FlexCell). We cultured cells overnight with the application of cyclic strain (Flexcell® FX4000™ Tension System) and/or treatment with chemical modulators (25-50 μM Yoda1, 1 μM Nanaomycin, 100 μM GdCl3, 1 uM GsMTx4, 5-20 μM 4αPDD, 10 uM GSK205). Next, harvested cells were used to perform transplant, fluorescence-activated cell sorting (FACS) analysis, and colony-forming unit (CFU) assays.
E11.5 mouse embryos were harvested from the uterus of the time-mated pregnant female, into sterile glass vials containing FBS, 1 mM glucose, 1% Penicillin-Streptomycin, and/or the selected chemical modulator (25-50 μM Yoda1, 1 μM Nanaomycin, 5-20 μM 4αPDD, or 10 uM GSK205). We placed glass vials in the ex vivo incubator (BTC Engineering, Cambridge, UK) consisting of a roller apparatus (rotating ˜30 rpm), constant gas supply (21% O2, 5% CO2, balance N2) and constant temperature at 37° C. After 24 hours, AGM were harvested to analyze the formation of hematopoietic cells by FACS and CFU assays.
For CFU assays, cells from AGM explant or ex vivo were plated in METHOCULT GF M3434 media (StemCell Technologies). Seven days after seeding, we analyzed their capacity to make granulocyte, erythroid, macrophage, megakaryocyte (GEMM), granulocyte macrophage (GM), granulocyte (G), macrophage (M), and erythroid (E) colonies.
AGM cells from explants and ex vivo were stained with Sca1-Pacific-Blue (E13-161.7, Biolegend) and Flk1-APC-Cy7 (Avas 12α1, BD). Blood from transplanted mice was stained with the following antibody cocktail: Cd45.2-Pacific-Blue (104, Biolegend), Cd45.1-FITC (A20, Biolegend), Cd3-PE (145-2C11, Biolegend), Cd8-PE (53-6.7, Biolegend), Mac1-APC (M1/70, Biolegend), Gr1-APC (108412, Biolegend), Cd19-APC-CY7 (6D5, Biolegend), B220-APC-CY7 (RA3-6B2, Biolegend).

Clc1cccc(Cl)c1CSc1nnc(-c2cnccn2)s1 [Yoda1, 2-[5-[[(2,6-Dichlorophenyl)methyl]thio]-1,3,4-thiadiazol-2-yl]-pyrazine]
dose dependence of the endothelial-to-hematopoietic transition [1]: dose dependent
endothelial-to-hematopoietic transition ([1]; 7 days, data not shown): induced the endothelial-to-hematopoietic transition
hematopoietic colony formation (endothelial-to-hematopoietic transition) [2]: stimulates the endothelial-to-hematopoietic transition
